Assay results from article PMC4002244, “ACE2 deficiency increases NADPH‐mediated oxidative stress in the kidney” (Physiological Reports, 2014).

What was measured:
[1] = Ex vivo degradation of exogenous Ang II in kidney cortex lysates; format: in vitro ADME, mouse; settings: 6 μg protein, Ang II 10^-9 mol/L, PBS pH 7.4 with 5 μmol/L ZnCl2, 37°C, ELISA
Procedure: (§1) Kidney cortex lysates (from ACE2 KO and WT mice) corresponding to 6 μg of total protein were individually incubated with 10^−9mol/L angiotensin II (Sigma‐Aldrich, St. Louis, MO) by constant shaking for up to 24 h at 37°C in PBS pH 7.4 containing 5 μmol/L ZnCl2. The incubation was performed with or without addition of the specific ACE2 inhibitor, MLN‐4760 (10^−6mol/L). Following the incubation, samples were diluted 1/5 in EDTA‐containing buffer (0.1 mol/L phosphate buffer, pH 7.4 containing 0.15 mol/L NaCl, 1 mmol/L EDTA, 0.1% BSA) and immediately frozen. The quantity of Ang II in the diluted samples was measured using enzyme‐linked immunosorbent assay kits (SPIBio, Cayman Chemical). Angiotensin quantity in each sample was expressed as a percentage ratio of the Ang remaining after a given incubation time to the initial Ang load (100%).

[2] = molecular target: T1, ACE2 (Mus musculus, UniProt Q8R0I0); assay: Ex vivo Ang II degradation by kidney cortex lysates with ACE2 inhibitor; format: biochemical; settings: WT lysates (6 μg protein, n = 5), MLN-4760 10^-6 mol/L, Ang II 10^-9 mol/L, PBS pH 7.4 with 5 μmol/L ZnCl2, 37°C, up to 24 h, Ang II by ELISA; P < 0.05 vs. WT without MLN-4760; similar to ACE2KO
T1 construct: from tissue; host or cells: kidney cortex of wild-type C57BL/6 mice (littermates of the ACE2KO mice)
T1 sequence (Q8R0I0 18-805): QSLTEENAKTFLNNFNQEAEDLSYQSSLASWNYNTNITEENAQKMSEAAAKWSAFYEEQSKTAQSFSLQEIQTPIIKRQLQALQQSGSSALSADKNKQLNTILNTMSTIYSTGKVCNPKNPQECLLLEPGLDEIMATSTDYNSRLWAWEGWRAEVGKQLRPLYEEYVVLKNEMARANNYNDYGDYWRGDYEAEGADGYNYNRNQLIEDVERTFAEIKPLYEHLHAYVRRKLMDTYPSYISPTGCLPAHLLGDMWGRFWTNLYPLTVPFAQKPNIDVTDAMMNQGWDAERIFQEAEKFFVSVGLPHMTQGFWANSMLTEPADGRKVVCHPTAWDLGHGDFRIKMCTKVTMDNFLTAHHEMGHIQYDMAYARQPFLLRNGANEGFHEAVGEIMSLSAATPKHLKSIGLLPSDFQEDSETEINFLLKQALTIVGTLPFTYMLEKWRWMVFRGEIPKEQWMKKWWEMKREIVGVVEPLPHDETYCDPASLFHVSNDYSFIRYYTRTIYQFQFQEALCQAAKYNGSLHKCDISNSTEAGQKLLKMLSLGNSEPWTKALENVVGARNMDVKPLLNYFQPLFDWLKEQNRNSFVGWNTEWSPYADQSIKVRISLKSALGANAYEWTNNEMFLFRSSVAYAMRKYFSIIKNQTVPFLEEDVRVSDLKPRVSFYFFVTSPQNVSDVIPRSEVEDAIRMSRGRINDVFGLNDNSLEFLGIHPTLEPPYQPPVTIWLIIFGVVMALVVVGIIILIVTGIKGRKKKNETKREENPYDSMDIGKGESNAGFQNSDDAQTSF
Procedure: as §1

[3] = tested on: kidney cortex NADPH oxidase activity; assay: Kidney cortex NADPH oxidase activity (lucigenin chemiluminescence) in ACE2KO mice after angiotensin receptor blockade; format: in vivo, mouse; settings: for Kidney cortex NADPH oxidase activity, percent of WT controls: male ACE2KO C57BL/6 mice, 2 weeks
Procedure: NADPH oxidase activity in kidney cortex was measured using lucigenin (5 μmol/L) and NADPH (100 μmol/L) as previously described (Block et al. 2007). Light emission was recorded every 1 min over a 10‐min period at room temperature in a 20/20^n luminometer (Turner Biosystems, Sunnyvale, CA). Superoxide anion production was expressed as relative chemiluminescence (light) units (RLU)/μg protein. There was no measurable activity in the absence of NADPH. Protein content was measured using the BCA protein assay reagent (Pierce, Rockford, IL).
ACE2KO and control mice at the age of 20–30 weeks were treated with losartan (Triangle Compounding Pharmacy, Cary, NC) or placebo for 2 weeks. Losartan was administered to ACE2KO at two doses: 10 mg/kg/day (n = 4) and 30 mg/kg/day (n = 5) in drinking water in two separate experiments. Another group of ACE2KO (n = 6) and WT controls (n = 5 and n = 10) were given vehicle drug, with similar taste and consistency. Water bottles were weighed daily to document accurate drug consumption. At the end of 2 weeks of treatment with losartan, we proceeded to measure markers of oxidative stress as described above.
A separate group of male ACE2 knockout mice at 35 weeks of age underwent either sham operation (n = 8) or osmotic minipump (Alzet 1002) implantation to infuse the AT2 receptor blocker, PD123319 (2 mg/kg/day, n = 8) for 14 days. Pumps were implanted subcutaneously on the back between the shoulder blades and hips while animals were anesthetized by inhalation of isoflurane anesthetic. At the end of 2 weeks of treatment with PD123319, we proceeded to measure markers of oxidative stress as described above.

## CC[C@H](C)[C@H](NC(=O)[C@H](Cc1ccc(O)cc1)NC(=O)[C@@H](NC(=O)[C@H](CCCNC(=N)N)NC(=O)[C@@H](N)CC(=O)O)C(C)C)C(=O)N[C@@H](Cc1cnc[nH]1)C(=O)N1CCC[C@H]1C(=O)N[C@@H](Cc1ccccc1)C(=O)O [Ang II, angiotensin II]
[1]; 6 and 24 h of incubation, n = 5 per group, P < 0.05
  Ang II degradation by WT versus ACE2KO kidney cortex lysates (in words): kidney lysates from WT mice degrade significantly more Ang II than the lysates obtained from ACE2KO
[1]; mouse, kidney cortex lysates (ACE2 KO, with MLN-4760 (ACE2 inhibitor, 10^-6 mol/L) in the WT lysates), lysates of ACE2 KO or WT + MLN-4760 (10^-6 mol/L), constant shaking, up to 24 h, n = 5, read-out: Proportion of Ang II degraded in kidney cortex lysates despite the lack of ACE2
  metabolised: ~50%

## CC(C)C[C@H](N[C@@H](Cc1cncn1Cc1cc(Cl)cc(Cl)c1)C(=O)O)C(=O)O [MLN-4760]
[2]
  Effect of co-incubation on Ang II degradation rate by WT kidney cortex lysates: significant decrease in Ang II degradation rate

## Cc1cc(Cn2cnc3c2C[C@@H](C(=O)O)N(C(=O)C(c2ccccc2)c2ccccc2)C3)ccc1N(C)C [PD123319]
[3]; male ACE2KO mice, 35 weeks old, PD123319 2 mg/kg/day subcutaneous osmotic minipump, 14 days, n = 8, sham-operated ACE2KO 100 ± 21%, P = 0.541, mean ± SEM, SEM
  Kidney NADPH oxidase activity, percent of sham-operated ACE2KO mice: 83 ± 17%

## CCCCc1nc(Cl)c(CO)n1Cc1ccc(-c2ccccc2-c2nn[nH]n2)cc1 [losartan]
[3]; ACE2KO mice, losartan 30 mg/kg/day
  Effect on kidney NADPH oxidase activity in ACE2KO (in words): normalization of NADPH oxidase activity
[3]; losartan 10 mg/kg/day in drinking water, n = 4, vehicle WT 100 ± 20%, P < 0.05, vehicle ACE2KO 181 ± 24%, mean ± SEM, SEM
  Kidney cortex NADPH oxidase activity, percent of WT controls: 201 ± 22%
[3]; losartan 30 mg/kg/day in drinking water, n = 5, vehicle WT 100 ± 18% (n = 10), P = 0.709, mean ± SEM, SEM
  Kidney cortex NADPH oxidase activity, percent of WT controls: 83 ± 29%
